Each structure is given as a SMILES string. Calls of active or inactive are those of the source. The calls are words filed in the database; no cut-off is given here.

For assay [1], the system named is Chlamydia trachomatis. Nature of the assay: Antimicrobial activity against Chlamydia trachomatis Nigg infected in BALB/c mouse genital tract infection model assessed as recovery of inclusion forming units from cervicovaginal swabs at 3 mg/ml, ip administered on days 10 to 24 days postinfection. It counts as functional, organism-based.
Assay [2] relates to Chlamydia trachomatis. Nature of the assay: Antimicrobial activity against Chlamydia trachomatis Nigg infected in BALB/c mouse genital tract infection model assessed as recovery of inclusion forming units from cervicovaginal swabs at 3 mg/ml, ip administered on days 42 to 56 days postinfection. It is filed as functional, organism-based.
The test system of assay [3] is Chlamydia trachomatis. Briefly: Antimicrobial activity against Chlamydia trachomatis Nigg infected in BALB/c mouse genital tract infection model assessed as severe oviduct dilation at 3 mg/ml, ip administered on days 10 to 24 days postinfection. It is filed as functional.
For assay [4], the system named is Chlamydia trachomatis. Nature of the assay: Antimicrobial activity against Chlamydia trachomatis Nigg infected in BALB/c mouse genital tract infection model assessed as severe oviduct dilation at 3 mg/ml, ip administered on days 42 to 56 days postinfection. It counts as functional.
In assay [5] the test system is Chlamydia trachomatis. Nature of the assay: Effect on chlamydial plasmid DNA of Chlamydia trachomatis Nigg infected in BALB/c mouse genital tract infection model at 3 mg/ml, ip administered on days 10 to 24 days postinfection by nested PCR. It is filed as functional, organism-based.
Assay [6] concerns Chlamydia trachomatis. Briefly: Effect on chlamydial plasmid DNA of Chlamydia trachomatis Nigg infected in BALB/c mouse genital tract infection model at 3 mg/ml, ip administered on days 42 to 56 days postinfection by nested PCR. It counts as functional, organism-based.

Turning to `C[C@H]1c2cccc(O)c2C(=O)C2=C(O)[C@]3(O)C(=O)C(C(N)=O)=C(O)[C@@H](N(C)C)[C@@H]3[C@@H](O)[C@@H]21.O` [DOXYCYCLINE], the result with Chlamydia trachomatis [1] and with Chlamydia trachomatis [2] was Active. The Activity in the assay on Chlamydia trachomatis [3] turned out to be 30%; in the assay on Chlamydia trachomatis [4], 80%. Further, the outcome with Chlamydia trachomatis [5] and with Chlamydia trachomatis [6] was inactive.

The values above are taken from ChEMBL document CHEMBL1157374, “Lack of an effect of antibiotic treatment on prolonged detection of chlamydial DNA in murine genital tract infection” (2007).
